Assay results as given in ChEMBL document CHEMBL4316623, “Phosphonodiamidate prodrugs of N-alkoxy analogs of a fosmidomycin surrogate as antimalarial and antitubercular agents” (Bioorg Med Chem Lett, 2019).

Tests used:
[1] = Selectivity index, ratio of CC50 for human MRC5 cells to IC50 for Mycobacterium tuberculosis H37Ra ATCC 25177 harboring lux gene; assay type: toxicity; settings: read-out: Ratio CC50/IC50
[2] = tested on: Mycobacterium tuberculosis; assay: Antitubercular activity against Mycobacterium tuberculosis H37Ra ATCC 25177 harboring lux gene measured after 7 days by luminometric method; assay type: functional, organism-based; settings: H37Ra ATCC 25177, 168 h

Work on `CCOC(=O)[C@H](CC(C)C)NP(=O)(CCCC(=O)N(C)OCc1ccc(C(C)C)cc1)N[C@@H](CC(C)C)C(=O)OCC` yielded a selectivity ratio [1] of 0.15 and an IC50 [2] of 49.1 µM.

`CCOC(=O)[C@H](CC(C)C)NP(=O)(CCCC(=O)N(C)OCCCc1ccccc1)N[C@@H](CC(C)C)C(=O)OCC` gave an IC50 [2] greater than 64 µM.

`CCOC(=O)[C@H](CC(C)C)NP(=O)(CCCC(=O)N(C)OCc1ccc(Cl)cc1)N[C@@H](CC(C)C)C(=O)OCC` gave a selectivity ratio [1] of 0.37 and an IC50 [2] of 49 µM.

`CCOC(=O)[C@H](CC(C)C)NP(=O)(CCCC(=O)N(C)OCCCCc1ccccc1)N[C@@H](CC(C)C)C(=O)OCC` showed a selectivity ratio [1] of 0.14 and an IC50 [2] of 50.3 µM.

In the case of `CCOC(=O)[C@H](CC(C)C)NP(=O)(CCCC(=O)N(C)OCc1ccc(-c2ccccc2)cc1)N[C@@H](CC(C)C)C(=O)OCC`, the selectivity ratio [1] is reported as 0.17 and the IC50 [2] is reported as 35.2 µM.

Molecule `CCOC(=O)[C@H](CC(C)C)NP(=O)(CCCC(=O)N(C)OCc1ccccc1)N[C@@H](CC(C)C)C(=O)OCC` has an IC50 [2] greater than 64 µM.

For `CCOC(=O)[C@H](CC(C)C)NP(=O)(CCCC(=O)N(C)OCc1ccc2ccccc2c1)N[C@@H](CC(C)C)C(=O)OCC`, the selectivity ratio [1] was 0.11 and the IC50 [2] was 48.2 µM.

With `NNC(=O)c1ccncc1` [ISONIAZID] the IC50 [2] was 0.21 µM.

`CCOC(=O)[C@H](CC(C)C)NP(=O)(CCCC(=O)N(C)O)N[C@@H](CC(C)C)C(=O)OCC` showed a selectivity ratio [1] greater than 2.2 and an IC50 [2] of 29.4 µM.
